In US7196110B2, “N-substituted tricyclic 3-aminopyrazoles as inhibitors for the treatment of cell proliferative disorders” (Janssen Phamaceutica N.V., priority 2002, dated 2007):

Biological target: T1, PDGF-receptor beta enzyme comprising the tyrosine kinase domain (Homo sapiens, UniProt P09619)
T1 construct: from amino acid 545 to 1106 of GenBank Access NO: AAA36427
Experiment: Inhibition of PDGF-receptor kinase activity (cell-free, PLC1 peptide, 33P Flashplate)
Format: biochemical
Details: PDGF-R kinase activity; for inhibition at 10 µM: compound at 10 uM, read-out: Percent Inhibition @ 10 uM; for IC50: read-out: IC50
Procedure, shortened: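 The IC50 is the inhibitor level halving kinase activity relative to inhibitor-free wells, measured as 33P captured on a streptavidin-bound biotin-PLC1 peptide. The reaction ran 60 min at 30 °C in pH 8 Tris buffer with 1 mM DTT, 5 μM ATP and the 545–1106 kinase-domain enzyme.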

T1 sequence (P09619 545-1106): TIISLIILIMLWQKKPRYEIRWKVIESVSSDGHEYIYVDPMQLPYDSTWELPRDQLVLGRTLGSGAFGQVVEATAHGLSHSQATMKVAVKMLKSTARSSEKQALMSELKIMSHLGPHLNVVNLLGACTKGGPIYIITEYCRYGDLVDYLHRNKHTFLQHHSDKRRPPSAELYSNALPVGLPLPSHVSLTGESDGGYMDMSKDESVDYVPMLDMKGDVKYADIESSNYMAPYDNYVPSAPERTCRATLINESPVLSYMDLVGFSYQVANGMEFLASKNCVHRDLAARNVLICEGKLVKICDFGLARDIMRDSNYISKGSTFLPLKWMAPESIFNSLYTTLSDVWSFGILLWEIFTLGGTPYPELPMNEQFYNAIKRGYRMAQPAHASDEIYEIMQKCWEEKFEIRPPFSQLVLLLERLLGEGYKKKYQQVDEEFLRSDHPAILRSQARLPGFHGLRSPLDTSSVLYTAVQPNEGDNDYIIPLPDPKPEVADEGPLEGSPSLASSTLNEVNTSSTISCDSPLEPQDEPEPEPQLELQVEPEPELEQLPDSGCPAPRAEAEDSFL

| SMILES | inhibition at 10 µM [%] | IC50 [nM] |
| --- | --- | --- |
| Fc1cccc(Nc2[nH]nc3c2Cc2cc(F)ccc2-3)c1 [Compound 235, (6-Fluoro-2,4-dihydro-indeno[1,2-c]pyrazol-3-yl)-(3-fluoro-phenyl)-amine] | 86 | 211 |
| Fc1ccc2c(c1)Cc1c-2n[nH]c1Nc1cc(F)ccc1F [Compound 236, (2,5-Difluoro-phenyl)-(6-fluoro-2,4-dihydro-indeno[1,2-c]pyrazol-3-yl)-amine] | 82 | 5 |
| Fc1ccc2c(c1)Cc1c-2n[nH]c1Nc1ccc(C(F)(F)F)cc1 [Compound 237, (6-Fluoro-2,4-dihydro-indeno[1,2-c]pyrazol-3-yl)-(4-trifluoromethyl-phenyl)-amine] | 88 | 50 |
| Fc1ccc2c(c1)Cc1c-2n[nH]c1Nc1ccc(OC(F)(F)F)cc1 [Compound 238, (6-Fluoro-2,4-dihydro-indeno[1,2-c]pyrazol-3-yl)-(4-trifluoromethoxy-phenyl)-amine] | 87 | 419 |
| Fc1ccc2c(c1)Cc1c-2n[nH]c1Nc1cc(C(F)(F)F)cc(C(F)(F)F)c1 [Compound 239, (3,5-Bis-trifluoromethyl-phenyl)-(6-fluoro-2,4-dihydro-indeno[1,2-c]pyrazol-3-yl)-amine] | 91 | 138 |
| Cc1cccc(Nc2[nH]nc3c2Cc2cc(F)ccc2-3)c1 [Compound 240, (6-Fluoro-2,4-dihydro-indeno[1,2-c]pyrazol-3-yl)-m-tolyl-amine] | 92 | 2 |
| COCCCOc1cc2c(cc1OC)-c1n[nH]c(Nc3cccc(F)c3)c1C2 [Compound 242, (3-Fluoro-phenyl)-[7-methoxy-6-(3-methoxy-propoxy)-2,4-dihydro-indeno[1,2-c]pyrazol-3-yl]-amine] | 104 | 13 |
| COCCCOc1cc2c(cc1OC)-c1n[nH]c(Nc3cccc(OC)c3)c1C2 [Compound 244, [7-Methoxy-6-(3-methoxy-propoxy)-2,4-dihydro-indeno[1,2-c]pyrazol-3-yl]-(3-methoxy-phenyl)-amine] | 101 | 0.2 |
| CCOc1cc2c(cc1OCC)-c1n[nH]c(Nc3cccc(OC)c3)c1C2 [Compound 245, (6,7-Diethoxy-2,4-dihydro-indeno[1,2-c]pyrazol-3-yl)-(3-methoxy-phenyl)-amine] | 87 | 1 |
| CCOc1cc2c(cc1OCC)-c1n[nH]c(Nc3ccc(F)c(Cl)c3)c1C2 [Compound 246, (3-Chloro-4-fluoro-phenyl)-(6,7-dioethoxy-2,4-dihydro-indeno[1,2-c]pyrazol-3-yl)-amine] | 77 | 12.1 |
| COc1cc2c(cc1OC)C(C)c1c-2n[nH]c1Nc1ccc(F)cc1 (stereo not drawn) [Compound 248, (6,7-Dimethoxy-4-methyl-2,4-dihydro-indeno[1,2-c]pyrazol-3-yl)-(4-fluoro-phenyl)-amine] | 68 | 410 |
| COc1cc2c(cc1OC)C(C)c1c-2n[nH]c1Nc1ccc(F)c(Cl)c1 (stereo not drawn) [Compound 250, (3-Chloro-4-fluoro-phenyl)-(6,7-dimethoxy-4-methyl-2,4-dihydro-indeno[1,2-c]pyrazol-3-yl)-amine] | 88 | 223 |
| COc1cc2c(cc1OC)C(C)c1c-2n[nH]c1Nc1cc(F)cc(F)c1 (stereo not drawn) [Compound 251, (3,5-Difluoro-phenyl)-(6,7-dimethoxy-4-methyl-2,4-dihydro-indeno[1,2-c]pyrazol-3-yl)-amine] | 84 | 322 |
| COc1cc2c(cc1OC)C(C)c1c-2n[nH]c1Nc1cc(F)ccc1F (stereo not drawn) [Compound 252, (2,5-Difluoro-phenyl)-(6,7-dimethoxy-4-methyl-2,4-dihydro-indeno[1,2-c]pyrazol-3-yl)-amine] | 16 | – |
| COc1cc2c(cc1OC)C(C)c1c-2n[nH]c1Nc1cccc(OCc2ccccc2)c1 (stereo not drawn) [Compound 254, (3-Benzyloxy-phenyl)-(6,7-dimethoxy-4-methyl-2,4-dihydro-indeno[1,2-c]pyrazol-3-yl)-amine] | 89 | 181 |
| COc1cc2c(cc1OC)C(C)c1c-2n[nH]c1Nc1cccc(SC)c1 (stereo not drawn) [Compound 255, (6,7-Dimethoxy-4-methyl-2,4-dihydro-indeno[1,2-c]pyrazol-3-yl)-(3-methylsulfanyl-phenyl)-amine] | 90 | 162 |
| COc1cc2c(cc1OC)C(C)c1c-2n[nH]c1Nc1cccc(Cl)c1 (stereo not drawn) [Compound 257, (3-Chloro-phenyl)-(6,7-dimethoxy-4-methyl-2,4-dihydro-indeno[1,2-c]pyrazol-3-yl)-amine] | 35 | – |

Next, values leading:

| inhibition at 10 µM [%] | IC50 [nM] | SMILES |
| --- | --- | --- |
| 39 | – | COc1ccc(OC)c(Nc2[nH]nc3c2C(C)c2cc(OC)c(OC)cc2-3)c1 (stereo not drawn) [Compound 258, (6,7-Dimethoxy-4-methyl-2,4-dihydro-indeno[1,2-c]pyrazol-3-yl)-(2,5-dimethoxy-phenyl)-amine] |
| 93 | 2.04 | COc1cc2c(cc1OCC(O)CO)Cc1c-2n[nH]c1Nc1cccc(Cl)c1 (stereo not drawn) [Compound 259] |
| 86 | 85.2 | CCOc1cc2c(cc1OCC)-c1n[nH]c(NCc3ccccc3)c1C2 [Compound 264, Benzyl-(6,7-diethoxy-2,4-dihydro-indeno[1,2-c]pyrazol-3-yl)-amine] |
| 54.5 | 6990 | COc1cc2c(cc1OC)-c1n[nH]c(NCc3cc(Cl)cc(Cl)c3)c1C2 [Compound 271, (3,5-Dichloro-benzyl)-(6,7-dimethoxy-2,4-dihydro-indeno[1,2-c]pyrazol-3-yl)-amine] |
| 61 | 389 | COc1cc2c(cc1OC)-c1n[nH]c(NCc3cccc(C)c3)c1C2 [Compound 272, (6,7-Dimethoxy-2,4-dihydro-indeno[1,2-c]pyrazol-3-yl)-(3-methyl-benzyl)-amine] |
| 77 | 1580 | COc1cc2c(cc1OC)-c1n[nH]c(NCc3ccc(C)c(Cl)c3)c1C2 [Compound 273, (3-Chloro-4-methyl-benzyl)-(6,7-dimethoxy-2,4-dihydro-indeno[1,2-c]pyrazol-3-yl)-amine] |
| 57.5 | 2610 | COc1ccc(OC)c(CNc2[nH]nc3c2Cc2cc(OC)c(OC)cc2-3)c1 [Compound 274, (2,5-Dimethoxy-benzyl)-(6,7-dimethoxy-2,4-dihydro-indeno[1,2-c]pyrazol-3-yl)-amine] |
| 80.5 | 501 | COc1cc2c(cc1OC)-c1n[nH]c(NCc3ccc(F)c(F)c3)c1C2 [Compound 275, (3,4-Difluoro-benzyl)-(6,7-dimethoxy-2,4-dihydro-indeno[1,2-c]pyrazol-3-yl)-amine] |
| 11 | 287 | COc1cc2c(cc1OC)-c1n[nH]c(Nc3ccc(F)c([N+](=O)[O-])c3)c1C2 [Compound 276, (6,7-Dimethoxy-2,4-dihydro-indeno[1,2-c]pyrazol-3-yl)-(4-fluoro-3-nitro-phenyl)-amine] |
| 88 | 1360 | COc1ccc(Nc2[nH]nc3c2Cc2cc(OC)c(OC)cc2-3)cc1Cl [Compound 277, (3-Chloro-4-methoxy-phenyl)-(6,7-dimethoxy-2,4-dihydro-indeno[1,2-c]pyrazol-3-yl)-amine] |
| 97 | 29.5 | COc1cc2c(cc1OC)-c1n[nH]c(Nc3cccc(C(C)O)c3)c1C2 (stereo not drawn) [Compound 278, 1-[3-(6,7-Dimethoxy-2,4-dihydro-indeno[1,2-c]pyrazol-3-ylamino)-phenyl]-ethanol] |
| 19.5 | 203000 | COc1cc2c(cc1OC)-c1n[nH]c(Nc3cc(C(C)(C)C)cc(C(C)(C)C)c3)c1C2 [Compound 279, (3,5-Di-tert-butyl-phenyl)-(6,7-dimethoxy-2,4-dihydro-indeno[1,2-c]pyrazol-3-yl)-amine] |
| 18.5 | 2.78 | COCCCOc1cc2c(cc1OCCCOC)-c1n[nH]c(Nc3cccc(Cl)c3)c1C2 [Compound 285, [6,7-Bis-(3-methoxy-propoxy)-2,4-dihydroindeno[1,2-c]pyrazol-3-yl]-(3-chloro-phenyl)-amine] |
| 88.5 | 219 | COc1ccc(Nc2[nH]nc3c2Cc2cc(F)ccc2-3)cc1Cl [Compound 288, (3-Chloro-4-methoxy-phenyl)-(6-fluoro-2,4-dihydro-indeno[1,2-c]pyrazol-3-yl)-amine] |
| 87.5 | 61.4 | Fc1ccc2c(c1)Cc1c-2n[nH]c1Nc1ccc2[nH]ccc2c1 [Compound 290, (6-Fluoro-2,4-dihydro-indeno[1,2-c]pyrazol-3-yl)-(1H-indol-5-yl)-amine] |
| 95 | 205 | COc1cc2c(cc1OCc1ccccc1)Cc1c-2n[nH]c1Nc1cccc(F)c1 [Compound 291, (6-Benzyloxy-7-methoxy-2,4-dihydro-indeno[1,2-c]pyrazol-3-yl)-(3-fluoro-phenyl)-amine] |
| 96.5 | 69.2 | CCOc1cc2c(cc1OCC)-c1n[nH]c(NCc3ccccc3F)c1C2 [Compound 293, (6,7-Diethoxy-2,4-dihydro-indeno[1,2-c]pyrazol-3-yl)-(2-fluoro-benzyl)-amine] |
| 81 | 264 | CCOc1cc2c(cc1OCC)-c1n[nH]c(NCc3cccc(F)c3)c1C2 [Compound 294, (6,7-Diethoxy-2,4-dihydro-indeno[1,2-c]pyrazol-3-yl)-(3-fluoro-benzyl)-amine] |
| 81.5 | 1.65 | CCOc1cc2c(cc1OCC)-c1n[nH]c(NCc3c(Cl)cccc3Cl)c1C2 [Compound 295, (2,6-Dichloro-benzyl)-(6,7-diethoxy-2,4-dihydro-indeno[1,2-c]pyrazol-3-yl)-amine] |
